Experiments:
[1] = test system: naive CD62LhiCD4+CD25− LN T cells; experiment: Foxp3 induction in newly activated naive CD4 T cells (intracellular staining); assay type: cell-based, mouse; settings: for number of cell divisions (CFSE): 24-48 hours after addition at 18 hours; for % Foxp3+ cells, activation with anti-TCR only: no costimulation; for % Foxp3+ cells, activation with anti-TCR only / % Foxp3+ cells, activation with anti-TCR + anti-CD28: average of two experiments; for % Foxp3+ cells, activation with anti-TCR + anti-CD28: with costimulation
Protocol: Mouse strains, cell sorting and culture Animal work was carried out according the Animals (Scientific Procedures) Act, UK. Lymph node (LN) cells were stained, analysed and sorted by flow cytometry as described (Cobb et al 2005 J. Exp. Med. 201: 1367-1373). Intracellular staining for Foxp3 protein was done as advised by the manufacturers (eBiosciences.com). The phosphorylation syatus of S6 ribosomal protein was determined using anti pS6 Ser235/236 (Cellsignaling cat.no. 2211, http://www.cellsignal.com) using the eBioscience Foxp3 staining kit and anti rabbit IgG-FITC or IgG-Cy5 (Jackson Immunoresearch). For induction of Foxp3 expression, sorted LN CD4+ CD25− CD62Lhi T cells were cultured at 1-3×10^6/ml with plate bound anti-TCRβ. […] After 18 hours the cells were either left in place for continued TCR stimulation or moved to uncoated wells with the indicated additives. To assess regulatory function, CD4 T cells cultured as indicated were titrated into round bottom wells containing either 1×10^5 CFSE labeled total LN cells or 5×10^4 CFSE labeled CD4^+ CD25^− T cells and 1×10^5 mitomycin-C treated (25 μg/ml, 20 min, 37° C.) T cell depleted splenocytes with the indicated concentrations of anti CD3 (2C11, Pharmingen). CD4 T cell CFSE profiles were recorded between 48 and 72 hours later.
Mice, Cell Sorting and Culture. Animal work was carried out according to the Animals (Scientific Procedures) Act, UK. Lymph node (LN) cells or thymocytes from wild type were stained, analysed and sorted by flow cytometry as described (Thompson et al., 2007 Immunity VoI 26 pp 335-344) from wild type (C57BL/6, BALB/c or C57BL/6×129) mice or from Rag1 deficient H2^b AND TCR transgenic mice. Antigen presenting cells were derived from bone marrow in the presence of GM-CSF and incubated with antigenic peptide. Intracellular staining for Foxp3 protein was done as advised by the manufacturers (eBiosciences.com). The phosphorylation status of S6 ribosomal protein was determined using anti pS6 Ser235/236 (Cell Signaling cat.no. 2211, http://www.cellsignal.com) using the eBioscience Foxp3 staining kit and anti rabbit IgG-FITC or IgG-Cy5 (Jackson ImmunoResearch). […] After 18 hours the cells were either left in place for continued TCR stimulation or moved to uncoated wells with the indicated additives. To assess regulatory function, CD4 T cells cultured as indicated were titrated into round bottom wells containing either 1×10^5 CFSE labeled total LN cells or 5×10^4 CFSE labeled CD4^+CD25^− T cells and 1×10^5 mitomycin-C treated (25 μg/ml, 20 min, 37° C.) T cell depleted splenocytes with the indicated concentrations of anti CD3 (2C11, Pharmingen). CD4 T cell CFSE profiles were recorded between 48 and 72 hours later.

S6 ribosomal protein = S6 ribosomal protein phosphorylation (pS6) by intracellular staining/immunoblot; assay type: cell-based, mouse; settings: 18 h activated cells; rapamycin 25 nM, Ly294002 10 g/ml as printed; within one hour
Protocol: Mouse strains, cell sorting and culture Animal work was carried out according the Animals (Scientific Procedures) Act, UK. Lymph node (LN) cells were stained, analysed and sorted by flow cytometry as described (Cobb et al 2005 J. Exp. Med. 201: 1367-1373). Intracellular staining for Foxp3 protein was done as advised by the manufacturers (eBiosciences.com). The phosphorylation syatus of S6 ribosomal protein was determined using anti pS6 Ser235/236 (Cellsignaling cat.no. 2211, http://www.cellsignal.com) using the eBioscience Foxp3 staining kit and anti rabbit IgG-FITC or IgG-Cy5 (Jackson Immunoresearch). […] CD4 T cell CFSE profiles were recorded between 48 and 72 hours later.
To monitor the activity of the PI3K/mTOR axis in response to TCR signaling, TCR signal withdrawal and treatment with rapamycin and Ly294002, we analysed the level of phosphorylated S6 ribosomal protein (pS6), the target of p70 S6 kinase, which is directly regulated by mTOR. […]
Mice, Cell Sorting and Culture. […] Lymph node (LN) cells or thymocytes from wild type were stained, analysed and sorted by flow cytometry as described (Thompson et al., 2007 Immunity VoI 26 pp 335-344) from wild type (C57BL/6, BALB/c or C57BL/6×129) mice or from Rag1 deficient H2^b AND TCR transgenic mice. […] CD4 T cell CFSE profiles were recorded between 48 and 72 hours later.

O=c1cc(N2CCOCC2)oc2c(-c3ccccc3)cccc12 [Ly294002, 2-(4-Morpholinyl)-8-phenyl-4H-1-benzopyran-4-one]
number of cell divisions (CFSE) [1]: slight reduction
number of cell divisions (CFSE) ([1]; listed as LY294002): slightly reduced
percentage of cells expressing Foxp3 ([1]; added 18 hours after activation with TCR signal deprivation, read within 24-48 hours): 26.9±11.4%
% Foxp3+ cells, activation with anti-TCR only [1]: 4%
% Foxp3+ cells, activation with anti-TCR only ([1]; listed as LY294002): 4% Foxp3^+
Foxp3 expression in control cultures, TCR signal deprived cultures subtracted ([1]; serum free AIM-V medium, without anti TGFβ and SB431542, 24-48 hours / 2 days): 21.5±4.0%
% Foxp3+ cells, activation with anti-TCR + anti-CD28 [1]: 44%
% Foxp3+ cells, activation with anti-TCR + anti-CD28 ([1]; listed as LY294002): 44% Foxp3^+
S6 phosphorylation (pS6) (S6 ribosomal protein): completely removed
